According to patent US20120208782A1, “Modulation of Growth of Bifidobacteria Using a Combination of Oligosaccharides Found in Human Milk” (Wyeth LLC, priority 2011, published 2012):

Experiments:
[1] = system: Bifidobacterium Breve ATCC 15700; assay: Growth of Bifidobacterium breve in RCM without glucose, with or without test ingredient (optical density at 595 nm, 30 hours); assay type: cell-based
Method: (§1) Reinforced Clostridia Medium (RCM) was used for cultivating the bifidobacteria. RCM without glucose was used as a control medium. RCM is a well-known medium for cultivating and enumerating anaerobes, which was first formulated by Hirsch and Grinstead, J. Dairy Res., 21:101 (1954). The test ingredients were 2′-fucosyllactose, 6′-sialyllactose and 3′-sialyllactose dissolved in the control medium at the following concentrations: 1 mg/ml 2′-fucosyllactose; 1 mg/ml 6′-sialyllactose; and, 2 mg/ml 3′-sialyllactose. The bifidobacteria were separately grown overnight anaerobically in RCM, and were then measured and diluted to an optical density of 0.1 as measured by absorbance spectroscopy at 595 nm, and were then further diluted ten-fold to make a working stock. For each test, 50 μl of working stock was added to each well of a 96 well plate containing either 200 μl of control medium (48 wells) or 200 μl test ingredient solution (48 wells). The plate was grown anaerobically for 30 hours and optical density was read at abs 595 nm every 15 minutes. The values for like wells were averaged and plotted over time (FIGS. 1, 3, and 5-7), and the area under the curve (AUC) was calculated over the 30-hour period (FIGS. 2 and 4).

[2] = system: Bifidobacterium Infantis ATCC 15697; assay: Growth of Bifidobacterium infantis in RCM without glucose, with or without test ingredient (optical density at 595 nm, 30 hours); assay type: cell-based; details: for growth in wells containing the test ingredient versus control medium: optical density 595 nm; for effect on the growth of Bifidobacterium infantis (summary statement): summary in the description
Method: as §1

SMILES | growth in wells containing the test ingredient versus control medium ([1]; 2 mg/ml 3′-sialyllactose, after 6 hours, optical density 595 nm, FIG. 6) | effect on the growth of Bifidobacterium breve (summary statement) ([1]; summary in the description) | growth in wells containing the test ingredient versus control medium ([2]; 2 mg/ml 3′-sialyllactose, after 8 hours, FIG. 7) | effect on the growth of Bifidobacterium infantis (summary statement) [2] | growth in wells containing the test ingredient versus control medium ([2]; 1 mg/ml 6′-sialyllactose, after 12 hours, FIG. 5)
CC(=O)N[C@H]1[C@H]([C@H](O)[C@H](O)CO)O[C@@](O[C@H]2[C@@H](O)[C@@H](CO)O[C@@H](O[C@H]3[C@H](O)[C@@H](O)C(O)O[C@@H]3CO)[C@@H]2O)(C(=O)O)C[C@@H]1O (stereo partly drawn) [3′-sialyllactose] | significantly greater | stimulates the growth | significantly greater | stimulates the growth | –
CC(=O)N[C@H]1[C@H]([C@H](O)[C@H](O)CO)O[C@@](OC[C@H]2O[C@@H](O[C@H]3[C@H](O)[C@@H](O)[C@H](O)O[C@@H]3CO)[C@H](O)[C@@H](O)[C@H]2O)(C(=O)O)C[C@@H]1O [6′-sialyllactose] | – | – | – | stimulates the growth | significantly greater
